Data taken from US20230114241A1, “METHODS OF TREATING EPILEPSY USING THE SAME” (Trevena, Inc., priority 2019, published 2023).

How the values were obtained:
[1] = biological target: T1, human sphingosine-1-phosphate receptor 1 (S1P1) (Homo sapiens, UniProt P21453); assay: Inhibition of cAMP production (HTRF cAMP HiRange), S1P1 CHO-K1 cells; format: cell-based; details: for Emax: CHO-K1, efficacy normalized to maximum efficacy of fingolimod, read-out: hS1P1 CAMP SPAN; for EC50: read-out: hS1P1 CAMP pEC50 (converted)
Outline: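 Intracellular cAMP changes read by TR-FRET (HTRF HiRange, 1 h room temperature) after 30 min compound exposure at 37 °C. Cells: overnight-plated CHO-K1 stably expressing tagged human S1P1 with EA-β-arrestin2. Responses normalized to fingolimod.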
Target sequence in this assay (P21453 whole entry): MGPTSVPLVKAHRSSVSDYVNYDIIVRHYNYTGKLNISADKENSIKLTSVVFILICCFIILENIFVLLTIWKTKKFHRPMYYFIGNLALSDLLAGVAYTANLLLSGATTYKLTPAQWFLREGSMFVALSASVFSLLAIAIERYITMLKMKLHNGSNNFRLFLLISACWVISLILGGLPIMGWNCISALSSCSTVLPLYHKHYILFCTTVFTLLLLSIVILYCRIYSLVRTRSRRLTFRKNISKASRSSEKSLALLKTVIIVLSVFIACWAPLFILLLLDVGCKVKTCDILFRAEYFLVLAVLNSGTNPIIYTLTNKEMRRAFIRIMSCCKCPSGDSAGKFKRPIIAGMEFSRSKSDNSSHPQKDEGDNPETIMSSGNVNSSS

[2] = biological target: T1, human sphingosine-1-phosphate receptor 1 (S1P1); assay: β-Arrestin2 recruitment assay (PathHunter), S1P1 CHO-K1 cells; format: cell-based; details: for Emax: efficacy normalized to maximum efficacy of fingolimod, read-out: hS1P1 B-arrestin2 SPAN; for EC50: β-arrestin2 recruitment, read-out: hS1P1 B-arrestin2 pEC50 (converted)
Outline: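 Agonist-driven β-arrestin2 recruitment measured by β-galactosidase complementation after 60 min compound exposure at 37 °C and 1 h detection at room temperature. Cells: stable CHO-K1 line expressing tagged human S1P1 with EA-β-arrestin2, plated the night before. Data expressed relative to fingolimod.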
Target sequence in this assay (P21453 whole entry): as above
Target sequence in this assay (P32121 whole entry partner): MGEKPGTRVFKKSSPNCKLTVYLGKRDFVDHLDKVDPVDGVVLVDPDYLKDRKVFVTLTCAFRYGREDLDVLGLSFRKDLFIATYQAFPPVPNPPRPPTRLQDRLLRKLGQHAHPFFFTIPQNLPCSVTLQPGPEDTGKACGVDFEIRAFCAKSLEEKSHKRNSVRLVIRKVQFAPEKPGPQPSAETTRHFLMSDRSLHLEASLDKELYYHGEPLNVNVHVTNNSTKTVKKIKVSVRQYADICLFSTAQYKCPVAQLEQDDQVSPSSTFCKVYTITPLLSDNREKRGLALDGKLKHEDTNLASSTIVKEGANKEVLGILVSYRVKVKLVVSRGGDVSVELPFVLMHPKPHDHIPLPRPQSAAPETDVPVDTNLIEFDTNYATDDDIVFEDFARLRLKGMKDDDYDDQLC

[3] = inhibition of cAMP production, potency
[4] = CHO-K1, β-arrestin2 recruitment
[5] = inhibition of cAMP production, S1P1

Row | SMILES | Emax ([1]; inhibition of cAMP production) [%] | EC50 [1, 3] [nM] | Emax [2, 4] [%] | EC50 ([2]; potency) [µM] | Emax [1] [%] | EC50 [1, 5] [nM] | Emax ([2]; CHO-K1) [%] | EC50 ([2]; S1P1) [µM]
1 | CCC1(CC)CC(=O)c2cc(-c3nc(-c4ccncc4F)no3)ccc2O1 [Compound 226, 2,2-diethyl-6-(3-(3-fluoropyridin-4-yl)-1,2,4-oxadiazol-5-yl)chroman-4-one] | > 75 | > 316 | > 75 | > 10 | – | – | – | –
2 | COc1cc(NC(C)=O)ccc1-c1nc(-c2ccncc2)no1 [Compound 582, N-{3-methoxy-4-[3-(pyridin-4-yl)-1,2,4-oxadiazol-5-yl]phenyl}acetamide] | – | – | – | – | > 75 | > 316 | < 75 | > 10
3 | COc1ccccc1-c1csc(-c2cnc3c(ccn3C(C)C)c2)n1 [Compound 401, 2-(1-isopropyl-1H-pyrrolo[2,3-b]pyridin-5-yl)-4-(2-methoxy-phenyl)thiazole] | – | – | – | – | < 75 | > 316 | < 75 | > 10
4 | CC(C)n1nnc2cc(-c3nc(-c4ccccc4Cl)no3)ccc21 [Compound 17] | > 75 | < 316 | > 75 | < 10 | – | – | – | –
5 | CCC1(CC)CC(=O)c2cc(-c3nc(-c4cccs4)no3)ccc2O1 [Compound 467, 2,2-diethyl-6-(3-(thiophen-2-yl)-1,2,4-oxadiazol-5-yl)chroman-4-one] | – | – | – | – | > 75 | < 316 | > 75 | < 10
6 | CCC1(CC)CC(=O)c2cc(-c3nc(-c4ccc5ncccc5c4)no3)ccc2O1 [Compound 521, 2,2-diethyl-6-(3-(quinolin-6-yl)-1,2,4-oxadiazol-5-yl)chroman-4-one] | – | – | – | – | < 75 | > 316 | < 75 | > 10
7 | COc1ccccc1-c1nnc(-c2ccc3c(c2)CCC(=O)N3)o1 [Compound 341, 6-[5-(2-methoxyphenyl)-1,3,4-oxadiazol-2-yl]-1,2,3,4-tetrahydro-quinolin-2-one] | < 75 | > 316 | < 75 | > 10 | – | – | – | –
8 | CCC1(CC)CC(=O)c2cc(-c3nc(-c4cncc(N)c4)no3)ccc2O1 [Compound 502, 6-(3-(5-aminopyridin-3-yl)-1,2,4-oxadiazol-5-yl)-2,2-diethylchroman-4-one] | – | – | – | – | > 75 | < 316 | > 75 | < 10
9 | CC1(C)Oc2ccc(-c3nc(-c4ccncc4)no3)cc2C1=O [Compound 480, 2,2-dimethyl-5-[3-(pyridin-4-yl)-1,2,4-oxadiazol-5-yl]-2,3-dihydro-1-benzofuran-3-one] | – | – | – | – | > 75 | > 316 | < 75 | > 10
10 | CCC1(CC)CC(=O)c2cc(-c3nc(-c4ccnc(N)c4)no3)ccc2O1 [Compound 513, 6-(3-(2-aminopyridin-4-yl)-1,2,4-oxadiazol-5-yl)-2,2-diethyl-chroman-4-one] | – | – | – | – | > 75 | < 316 | > 75 | < 10
11 | CC(C)c1cc(-c2nc(-c3ccc4c(c3)nnn4C(C)C)no2)ccn1 [Compound 167, 3-(1-isopropyl-1H-benzo[d][1,2,3]triazol-5-yl)-5-(2-isopropyl-pyridin-4-yl)-1,2,4-oxadiazole] | < 75 | > 316 | < 75 | > 10 | – | – | – | –
12 | CCC1(CC)CC(=O)c2cc(-c3nc(-c4cc[nH]c4)no3)ccc2O1 [Compound 485, 6-(3-(1H-pyrrol-3-yl)-1,2,4-oxadiazol-5-yl)-2,2-diethylchroman-4-one] | – | – | – | – | > 75 | < 316 | > 75 | > 10
13 | N#Cc1cc(-c2nnc(-c3ccc4c(c3)ncn4CCO)o2)ccc1NCC(F)F [Compound 578, 2-[(2,2-difluoro-ethyl)amino]-5-{5-[1-(2-hydroxyethyl)-1H-1,3-benzodiazol-5-yl]-1,3,4-oxadiazol-2-yl}benzonitrile] | – | – | – | – | > 75 | > 316 | < 75 | > 10
14 | CC(C)n1nnc2cc(-c3noc(-c4ccccc4C(F)(F)F)n3)ccc21 [Compound 33, 3-(1-isopropyl-benzotriazol-5-yl)-5-[2-(trifluoromethyl)phenyl]-1,2,4-oxadiazole] | > 75 | < 316 | > 75 | < 10 | – | – | – | –
15 | CCC1(CC)CC(=O)c2cc(-c3nc(-c4cnc[nH]4)no3)ccc2O1 [Compound 466, 6-(3-(1H-imidazol-5-yl)-1,2,4-oxadiazol-5-yl)-2,2-diethylchroman-4-one] | – | – | – | – | > 75 | > 316 | > 75 | > 10
